The source of these data is patent publication US9029337B2, “Modulation of factor 7 expression” (Isis Pharmaceuticals, Inc., priority 2007, dated 2015).

Strand notation (5' to 3'): a small letter for the sugar, then the base; units joined by * are phosphorothioate-linked, units joined directly phosphodiester-linked; [ ] holds rarer units or linkages, { } end groups; capitals alone tell only the bases. e = 2'-O-(2-methoxyethyl) (MOE); [5mC] = 5-methylcytosine; d = 2'-deoxy (DNA)

The test system of the first data set is human Factor 7 mRNA. As to the kind of experiment: Antisense inhibition of human Factor 7 mRNA in HepB3 cells, 50 nM antisense oligonucleotide, lipofectin. The settings on record: Table 1, 50 nM, lipofectin, approximately 24 hours, relative to untreated control cells. The class given is cell-based. An outline of the steps:
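Cells plated at 4,000 per well were transfected and harvested after approximately 24 hours of treatment. Transcript levels, measured with primer probe set RTS 2927, were normalised to total RNA by RIBOGREEN®. Values are percent inhibition relative to untreated control cells.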
As for “407924 (antisense eG*eA*eT*eT*eT*dG*dG*dT*dG*d[5mC]*d[5mC]*dA*dG*dG*dA*e[5mC]*eA*eG*eT*eT) [compound 407924]”, the “% Inhibition” value was 68%. For “407636 (antisense eG*e[5mC]*eA*eG*e[5mC]*d[5mC]*d[5mC]*dT*dG*dG*d[5mC]*d[5mC]*d[5mC]*d[5mC]*dA*eG*e[5mC]*eT*eG*eA) [compound 407636]”, the “% Inhibition” value was 75%. As for “407929 (antisense eG*e[5mC]*eA*eG*eA*dG*d[5mC]*dA*dG*d[5mC]*dA*dG*d[5mC]*d[5mC]*dT*eG*eA*eG*eG*e[5mC]) [compound 407929]”, the “% Inhibition” value amounted to 53%. The same measure, in the same setting: the same measure for “407960 (antisense eG*eT*eG*e[5mC]*e[5mC]*d[5mC]*dA*dG*dG*dA*d[5mC]*dG*dG*d[5mC]*d[5mC]*e[5mC]*eT*eG*e[5mC]*eA) [compound 407960]”: 53%.

Regarding “407600 (antisense eT*eG*eA*eA*eG*d[5mC]*d[5mC]*d[5mC]*dA*dA*dG*d[5mC]*dA*dG*dA*eA*eG*eG*e[5mC]*eA) [compound 407600]”, the “% Inhibition” value is 61%. In the case of “407647 (antisense eG*e[5mC]*eA*eG*e[5mC]*d[5mC]*dG*dT*dT*dT*dA*dT*dT*dG*dT*eG*eA*eA*eG*e[5mC]) [compound 407647]”, the “% Inhibition” value was 83%. Regarding “407932 (antisense eG*eA*eA*e[5mC]*e[5mC]*dA*dG*dA*dA*dA*dA*dG*dT*dG*dA*eG*eA*eG*e[5mC]*eT) [compound 407932]”, the “% Inhibition” value worked out at 55%. As for “407931 (antisense e[5mC]*eT*eT*e[5mC]*eA*dG*dA*dG*dG*dA*d[5mC]*dA*dG*d[5mC]*dA*e[5mC]*eA*e[5mC]*eA*eT) [compound 407931]”, the “% Inhibition” value worked out at 56%. Turning to “407657 (antisense eG*eG*eG*eA*e[5mC]*dT*d[5mC]*dA*dG*d[5mC]*dA*dA*dG*dA*dG*eT*eG*e[5mC]*eA*eG) [compound 407657]”, the “% Inhibition” value is on record as 26%. As to “407896 (antisense e[5mC]*eG*eT*eG*eT*dG*dG*dT*d[5mC]*dA*d[5mC]*dT*dG*d[5mC]*dA*eG*eT*eA*e[5mC]*eT) [compound 407896]”, the “% Inhibition” value is 73%. “407957 (antisense eG*eG*e[5mC]*e[5mC]*eT*dG*dG*dG*dA*dA*d[5mC]*dT*dT*dG*d[5mC]*eA*eT*eT*eT*eA) [compound 407957]”: the “% Inhibition” value turned out to be 52%. The same measure, in the same setting: next, “407669 (antisense eT*eA*eG*eA*e[5mC]*d[5mC]*d[5mC]*dT*d[5mC]*dA*dG*dT*dG*dA*dG*eT*eG*eT*e[5mC]*eG) [compound 407669]”: 57%.

Still in this data set, the particulars now being: Table 6, 50 nM, lipofectin, approximately 24 hours.
Consider “422271 (antisense e[5mC]*eT*dG*dA*dG*d[5mC]*dG*d[5mC]*dG*dG*dA*dA*dG*dA*dA*eG*eG*eG*eA*e[5mC]) [compound 422271]”, for which the “% Inhibition” value amounted to 32%. As to “422198 (antisense eG*eT*eT*dA*d[5mC]*dT*dG*dA*dG*d[5mC]*dG*d[5mC]*dG*dG*dA*dA*dG*eA*eA*eG) [compound 422198]”, the “% Inhibition” value worked out at 50%.

The data set is the same for the next values; noted with them: Table 13 (microwalk), 50 nM, lipofectin, approximately 24 hours.
Regarding “422153 (antisense e[5mC]*eA*eT*dG*d[5mC]*dA*dT*dG*dG*dT*dG*dA*dT*dG*d[5mC]*dT*dT*e[5mC]*eT*eG) [compound 422153]”, the “% Inhibition” value was found to be 67%.

Still in this data set, the particulars now being: gapmers targeted to nucleobases 4868 to 4899 of SEQ ID NO: 1, Table 8.
For “422141 (antisense eA*eG*eT*eT*e[5mC]*dT*dG*d[5mC]*dA*dG*dG*dA*dG*d[5mC]*dG*eG*e[5mC]*e[5mC]*eT*eA) [compound 422141]”, the “% Inhibition of human Factor 7 mRNA levels” value is on record as 64%.

On to “422216 (antisense eA*eG*eT*dT*d[5mC]*dT*dG*d[5mC]*dA*dG*dG*dA*dG*d[5mC]*dG*dG*d[5mC]*e[5mC]*eT*eA) [compound 422216]”, for which the “% Inhibition of human Factor 7 mRNA levels” value is 68%.

Take “422221 (antisense eG*e[5mC]*e[5mC]*d[5mC]*dG*dA*dG*dT*dT*d[5mC]*dT*dG*d[5mC]*dA*dG*dG*dA*eG*e[5mC]*eG) [compound 422221]”: the “% Inhibition of human Factor 7 mRNA levels” value is 59%.

The same data set, now with this note: lipofectin, 50 nM antisense oligonucleotide, approximately 24 hours, Factor 7 mRNA by real-time RT-PCR (RTS 2927), relative to untreated control.
In the case of “416550 (antisense eT*eG*eG*e[5mC]*eT*dG*dG*d[5mC]*dT*dG*dA*dG*dG*dA*dG*eA*e[5mC]*eA*eA*eT) [compound 416550]”, the “% Inhibition” value worked out at 55%.

Turning to “416561 (antisense eG*eG*eT*eG*eT*dG*dT*dT*d[5mC]*d[5mC]*d[5mC]*dA*dT*dA*dA*eA*eA*e[5mC]*eT*eT) [compound 416561]”, the “% Inhibition” value came out at 16%. On the same count and under the same terms, next, “416560 (antisense eT*eA*eA*eA*eA*d[5mC]*dT*dT*dT*dA*dT*dT*dT*dA*d[5mC]*eA*eA*eG*eA*eG) [compound 416560]”: 0%. Turning to “416466 (antisense eT*eG*eT*eG*eG*dG*d[5mC]*d[5mC]*dT*d[5mC]*d[5mC]*dA*d[5mC]*dT*dG*eT*e[5mC]*e[5mC]*e[5mC]*e[5mC]) [compound 416466]”, the “% Inhibition” value was 57%.

In the case of “416544 (antisense eA*eT*e[5mC]*e[5mC]*e[5mC]*dA*dT*dT*dT*dT*d[5mC]*d[5mC]*d[5mC]*dA*dG*eG*eA*eG*e[5mC]*e[5mC]) [compound 416544]”, the “% Inhibition” value amounted to 58%. In the case of “416427 (antisense e[5mC]*e[5mC]*e[5mC]*eT*eG*dA*dA*dG*d[5mC]*d[5mC]*d[5mC]*dA*dA*dG*d[5mC]*eA*eG*eA*eA*eG) [compound 416427]”, the “% Inhibition” value was found to be 5%.

For the substance “416453 (antisense eG*eA*eT*eT*eT*dT*dG*dT*d[5mC]*dG*dA*dA*dA*d[5mC]*dA*eG*eT*eG*eG*eG) [compound 416453]”, the “% Inhibition” value is given as 45%.

Still in this data set, the particulars now being: oligonucleotides targeted to nucleobases 11830 to 11869 of SEQ ID NO: 1 (Table 9).
Take “422242 (antisense eG*eG*dA*dG*dA*d[5mC]*dA*dA*dT*dG*dG*dT*d[5mC]*dA*dG*eG*eG*e[5mC]*eT*eG) [compound 422242]”: the “% Inhibition (human Factor 7 mRNA levels)” value was determined as 64%. Consider “422172 (antisense eT*eG*eG*d[5mC]*dT*dG*dA*dG*dG*dA*dG*dA*d[5mC]*dA*dA*dT*dG*eG*eT*e[5mC]) [compound 422172]”, for which the “% Inhibition (human Factor 7 mRNA levels)” value worked out at 39%.

On to “422157 (antisense eT*eG*eG*dT*d[5mC]*dA*dG*dG*dG*d[5mC]*dT*dG*dG*dT*dT*dT*dT*eG*eG*eA) [compound 422157]”, for which the “% Inhibition (human Factor 7 mRNA levels)” value came out at 49%.

As for “422251 (antisense eG*e[5mC]*dT*dG*dG*d[5mC]*dT*dG*dA*dG*dG*dA*dG*dA*d[5mC]*eA*eA*eT*eG*eG) [compound 422251]”, the “% Inhibition (human Factor 7 mRNA levels)” value was determined as 36%. Take “422173 (antisense e[5mC]*eT*eG*dG*d[5mC]*dT*dG*dA*dG*dG*dA*dG*dA*d[5mC]*dA*dA*dT*eG*eG*eT) [compound 422173]”: the “% Inhibition (human Factor 7 mRNA levels)” value was 51%.

Staying with this data set, now noted: oligonucleotides targeted to nucleobases 13760 to 13789 of SEQ ID NO: 1 (Table 10).
Consider “422261 (antisense eT*eG*d[5mC]*dG*d[5mC]*d[5mC]*dA*d[5mC]*d[5mC]*d[5mC]*dG*d[5mC]*d[5mC]*dG*dG*e[5mC]*eT*e[5mC]*eT*eG) [compound 422261]”, for which the “% Inhibition (human Factor 7 mRNA levels)” value worked out at 47%.

Still in this data set, the particulars now being: oligonucleotides targeted to nucleobases 14707 to 14732 of SEQ ID NO: 1 (Table 11).
In the case of “422132 (antisense eG*e[5mC]*eA*eG*e[5mC]*d[5mC]*dT*dG*dA*dG*dG*d[5mC]*d[5mC]*dA*dG*e[5mC]*eA*eG*eA*eT) [compound 422132]”, the “% Inhibition (human Factor 7 mRNA levels)” value amounted to 54%.

The data set is the same for the next values; noted with them: oligonucleotides targeted to nucleobases 15098 to 15122 of SEQ ID NO: 1 (Table 12).
In the case of “422207 (antisense e[5mC]*eA*e[5mC]*dA*d[5mC]*dA*dT*dG*dG*dA*dG*dT*d[5mC]*dA*dG*d[5mC]*dA*eT*e[5mC]*eG) [compound 422207]”, the “% Inhibition (human Factor 7 mRNA levels)” value is 41%.

A word on the % Inhibition: it is the relative decrease from the control value, in per cent. Low values mean a weak effect, high ones a strong effect.
